Data on eleven molecules can be found in patent US12173018B2, “Penicillin-binding protein inhibitors” (priority 2018, dated 2024).

In brackets after ≈: the same amount, converted by molar mass. Counter-ions that a name gives are not always drawn. Like-named read-outs stand apart in the source and are kept apart here.

For test [1], the target named is E. coli PBP3 (Escherichia coli (strain K12), UniProt P0AD68). The test is described as follows: E. coli PBP3 Bocillin-FL fluorescence polarization competition binding assay. In outline:
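FP competition: 1.5 μM PBP, 0.1 μM Bocillin-FL, cpd 0–1000 μM; 50 mM Hepes pH 8.0/300 mM NaCl/5% glycerol. Read 490/520 nm immediately after Bocillin-FL addition, 60 min. EC50 = cpd conc. lowering probe binding.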
(In general: Polarisation of emitted light reports the rotation of a fluorescent probe.)

For test [2], the system named is engineered strain of Escherichia coli harboring CTX-M15. Kind of test: microbe, parasite or virus in culture. It is filed as cell-based. The following applies: for MIC: Escherichia coli, read-out: Microbiological Activity (MIC in mg/L), E. coli DH5α/pLBII-CTX-M15, engineered strain producing CTX-M15. As for the experimental part:
Briefly, cryo-preserved bacterial cultures of challenge strains are streaked for isolation on appropriate agar medium, in this case Mueller Hinton II agar. Following incubation to allow growth of the colonies, plates are sealed with parafilm and stored refrigerated for up to two weeks. For preparation of assay inoculum and to ensure low variability, at least 5 colonies are picked from the agar plates with an inoculating loop and aseptically transferred to a culture tube containing 3 mL of Mueller-Hinton Broth (supplemented with divalent cations to required levels based on Manufacturers' certification). The broth culture is grown for 3-5 hours at 37° C. with shaking at 200 rpm. Meanwhile, 2-fold serial dilutions of test compounds are conducted in a 96 well plate with a final volume of 75 μL per well at 2-fold the final desired concentration. After the dilution plates are set up the growing cultures are then diluted in a cuvette containing MH II broth and the optical density is measured at 600 nm. The Inoculum is diluted such that 75 μL of this culture in Mueller-Hinton Broth results in a starting bacterial concentration of 5×10^5 CFU/mL when added to the dilution plates. The plates are incubated for 16-20 hours at 37° C. The MIC values are read visually as the lowest concentration well with no bacterial growth.
To determine if test compounds were affected by CTX-M15, the most abundant extended spectrum […] in clinical settings worldwide, the inhibition of the growth of an engineered strain of Escherichia coli harboring CTX-M15 was tested. This strain was constructed by cloning the gene encoding CTX-M15 into the NdeI and BamHI restriction endonuclease sites of plasmid pLBII, placing the gene(s) under the control of the Lac promoter. The constructed expression plasmid for CTX-M15 was used to transform competent E. coli DH5α cells to make the engineered strain, including an empty pLBII vector control strain. The classic cell based broth microdilution MIC assay was employed as described above with the addition of control antibiotics, known to be degraded by β-lactamases (Ceftazidime, piperacillin and piperacillin+tazobactam).

Setting [3] is: fluorescence polarization competition binding with Bocillin-FL, read-out: E. coli K12 PBP3 Potency.

Sequence of E. coli PBP3 (P0AD68 whole entry): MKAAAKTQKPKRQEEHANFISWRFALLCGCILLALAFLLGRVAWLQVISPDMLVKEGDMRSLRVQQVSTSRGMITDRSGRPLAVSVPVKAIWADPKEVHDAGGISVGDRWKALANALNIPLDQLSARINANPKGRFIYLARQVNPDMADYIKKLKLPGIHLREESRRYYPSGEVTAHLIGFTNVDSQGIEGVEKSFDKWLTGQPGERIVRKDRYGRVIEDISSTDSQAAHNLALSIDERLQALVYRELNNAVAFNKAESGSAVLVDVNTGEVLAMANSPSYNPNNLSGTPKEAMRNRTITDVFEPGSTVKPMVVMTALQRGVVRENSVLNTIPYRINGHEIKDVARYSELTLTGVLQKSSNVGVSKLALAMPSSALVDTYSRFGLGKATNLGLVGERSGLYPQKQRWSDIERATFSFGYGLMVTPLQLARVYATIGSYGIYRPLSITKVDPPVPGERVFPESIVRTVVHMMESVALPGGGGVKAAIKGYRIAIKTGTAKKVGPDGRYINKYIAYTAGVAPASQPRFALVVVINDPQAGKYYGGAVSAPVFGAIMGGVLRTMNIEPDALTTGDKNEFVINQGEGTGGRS

Turning to `CCN1CCN(C(=O)NC(C(=O)N[C@H]2Cc3cccc(C(=O)O)c3OB2O)c2c(C)n[nH]c2C)C(=O)C1=O` (stereo partly drawn) [Example 54, (3R)-3-(2-(3,5-dimethyl-1H-pyrazol-4-yl)-2-(4-ethyl-2,3-dioxopiperazine-1-carboxamido)acetamido)-2-hydroxy-3,4-dihydro-2H-benzo[e][1,2]oxaborinine-8-carboxylic acid, trifluoroacetic acid salt], the EC50 in test [1] was 30 to 500 µM. The MIC in test [2] is 128 to 256 mg/L.
With `CCN1CCN(C(=O)NC(C(=O)N[C@H]2Cc3cccc(C(=O)O)c3OB2O)C2CCNC2)C(=O)C1=O` (stereo partly drawn) [Example 55, (3R)-3-(2-(4-ethyl-2,3-dioxopiperazine-1-carboxamido)-2-(pyrrolidin-3-yl)acetamido)-2-hydroxy-3,4-dihydro-2H-benzo[e][1,2]oxaborinine-8-carboxylic acid, trifluoroacetic acid salt], the EC50 in test [1] (setting [3]) was more than 500 µM. Besides, the MIC in test [2] is 128 to 256 mg/L.
In the same order, the values of `CCN1CCN(C(=O)NC(C(=O)N[C@H]2Cc3cccc(C(=O)O)c3OB2O)C2CCN(CC(N)=O)C2)C(=O)C1=O` (stereo partly drawn) [Example 57, (3R)-3-(2-(1-(2-amino-2-oxoethyl)pyrrolidin-3-yl)-2-(4-ethyl-2,3-dioxopiperazine-1-carboxamido)acetamido)-2-hydroxy-3,4-dihydro-2H-benzo[e][1,2]oxaborinine-8-carboxylic acid, trifluoroacetic acid salt] are more than 500 µM and 128 to 256 mg/L.
In turn, `CCN1CCN(C(=O)N[C@@H](C(=O)N[C@H]2Cc3cccc(C(=O)O)c3OB2O)[C@@H](C)OCC(N)=O)C(=O)C1=O` [Example 66, (R)-3-((2R,3R)-3-(2-amino-2-oxoethoxy)-2-(4-ethyl-2,3-dioxopiperazine-1-carboxamido)butanamido)-2-hydroxy-3,4-dihydro-2H-benzo[e][1,2]oxaborinine-8-carboxylic acid] came in with an EC50 in test [1] of 30 to 500 µM. Moreover, in test [2], the MIC was 32 to 64 mg/L (≈ 60 to 120 µM).
In the case of `CCN1CCN(C(=O)N[C@H](CNS(=O)(=O)C(F)(F)F)C(=O)N[C@H]2Cc3cccc(C(=O)O)c3OB2O)C(=O)C1=O` [Example 75, (R)-3-((R)-2-(4-ethyl-2,3-dioxopiperazine-1-carboxamido)-3-((trifluoromethyl)sulfonamido)propanamido)-2-hydroxy-3,4-dihydro-2H-benzo[e][1,2]oxaborinine-8-carboxylic acid], in test [1] (setting [3]), the EC50 was more than 500 µM. For the same molecule, the MIC in test [2] was in the range of 128 to 256 mg/L (≈ 216 to 431 µM).
With `CCN1CCN(C(=O)N[C@H](CNS(C)(=O)=O)C(=O)N[C@H]2Cc3cccc(C(=O)O)c3OB2O)C(=O)C1=O` [Example 83, (R)-3-((R)-2-(4-ethyl-2,3-dioxopiperazine-1-carboxamido)-3-(methylsulfonamido)propanamido)-2-hydroxy-3,4-dihydro-2H-benzo[e][1,2]oxaborinine-8-carboxylic acid], the EC50 in test [1] (setting [3]) is more than 500 µM. In test [2], the MIC fell in the range of 32 to 64 mg/L (≈ 59.3 to 119 µM).
On the same counts, the results for `C[C@@H](O)[C@@H](NC(=O)N1CCN(CCF)C(=O)C1=O)C(=O)N[C@H]1Cc2cc(O)c(O)c(C(=O)O)c2OB1O` [Example 94, (R)-3-((2R,3R)-2-(4-(2-fluoroethyl)-2,3-dioxopiperazine-1-carboxamido)-3-hydroxybutanamido)-2,6,7-trihydroxy-3,4-dihydro-2H-benzo[e][1,2]oxaborinine-8-carboxylic acid] are more than 500 µM and 128 to 256 mg/L (≈ 243 to 486 µM).
With `CCN1CCN(C(=O)N[C@@H](C(=O)N[C@H]2Cc3cc(O)c(O)c(C(=O)O)c3OB2O)[C@@H](C)O)C(=O)C1=O` [Example 95, (R)-3-((2R,3R)-2-(4-ethyl-2,3-dioxopiperazine-1-carboxamido)-3-hydroxybutanamido)-2,6,7-trihydroxy-3,4-dihydro-2H-benzo[e][1,2]oxaborinine-8-carboxylic acid], the EC50 in test [1] (setting [3]) was more than 500 µM. In addition, the MIC in test [2] lay in the range of 128 to 256 mg/L (≈ 252 to 504 µM).
Turning to `CCN1CCN(C(=O)N[C@@H](C(=O)N[C@H]2Cc3cc(O)c(O)c(C(=O)O)c3OB2O)[C@H](C)O)C(=O)C1=O` [Example 96, (R)-3-((2R,3S)-2-(4-ethyl-2,3-dioxopiperazine-1-carboxamido)-3-hydroxybutanamido)-2,6,7-trihydroxy-3,4-dihydro-2H-benzo[e][1,2]oxaborinine-8-carboxylic acid], the EC50 in test [1] (setting [3]) is more than 500 µM. Moreover, in test [2], the MIC lay within 128 to 256 mg/L (≈ 252 to 504 µM).
With `CCN1CCN(C(=O)N[C@@](C)(C(=O)N[C@H]2Cc3cccc(C(=O)O)c3OB2O)c2csc(N)n2)C(=O)C1=O` [Example 97, (R)-3-((R)-2-(2-aminothiazol-4-yl)-2-(4-ethyl-2,3-dioxopiperazine-1-carboxamido)propanamido)-2-hydroxy-3,4-dihydro-2H-benzo[e][1,2]oxaborinine-8-carboxylic acid], in test [1] (setting [3]), the EC50 is more than 500 µM. The MIC in test [2] lay within 128 to 256 mg/L (≈ 235 to 470 µM).
Take `CC(C)(O/N=C(\C(=O)N[C@@H]1C(=O)N2C(C(=O)[O-])=C(C[n+]3ccccc3)CS[C@H]12)c1csc(N)n1)C(=O)O` [ceftazidime, reference compound]: the “MIC in CTX-M15 producer compared with parent strain with empty pLBII plasmid” value in test [2] (engineered E. coli DH5α with CTX-M15 vs empty vector control) was “weaker MICs in the CTX-M15 producer”. Moreover, the “Microbiological Activity (MIC in mg/L), E. coli DH5α/pLBII-CTX-M15” value in test [2] (engineered strain producing CTX-M15) is listed as “D (D represents an MIC from 8 to 16 μg/mL)”.
